From patent US20080051393A1, “Novel cannabinoids and methods of use” (Eastern Virginia Medical School, priority 2006, published 2008)
“Also recorded” adds a separate entry of the source.

Assays:
[1] = Ocular toxicity by slit lamp, MacDonald-Shadduck scoring; type: in vivo, rats; details: topical
Protocol: Slit Lamp Biomicroscopy/Digital Photography. Ocular toxicity was measured using slit lamp examination and performed using a modified MacDonald-Shadduck semi-quantitative scale for ocular irritation (McDonald, T. O. and Shadduck, J. A. (1987) Eye irriation. In Dermatotoxicology. 3rd Ed. Mazulli and Maibach. Pp 641-696. Washington, DC: Hemisphere). All eyes were examined by a slit lamp fitted with a color digital camera for digital photography of conjunctiva, cornea, and anterior camber. Images were stored and analyzed using a digital video system (Lombart Instruments DVS System). At baseline and following drug administration, eyes were examined for conjunctival congestion, conjunctival discharge, corneal edema, aqueous flare, fibrin, and iris congestion (Samudre, S. S. et al. (2004) Comparison of Topical Steroids for Acute Anterior Uveitis. J. Ocul. Pharmacol. Ther. 20 (6):533-547). Knowledgeable, masked observers rated each factor on a semi-quantitative four point scale where zero was coded normal, 1=minimal, 2=moderate and 3=severe involvement. Results were compared to the normal baseline evaluation performed before treatment and also with the untreated contralateral eye.

[2] = system: retinal ganglionic cells (RGC); assay: Rat NMDA model: retinal flat mounts, RGC count; type: in vivo; details: NMDA model, retinal flat mounts
Protocol: (§1) Rat NMDA Model. To mimic glaucomatous damage to the retina without a potentially confounding effect on IOP, retinal damage was induced by NMDA in a rat model. Following baseline measurements, e.g. IOP, ERG, slit lamp, fundus photography, heart rate and blood pressure, N-methyl D-aspartate (NMDA, 2 μl of 10 mM) was injected intravitreally to induce RGC damage. […] For positive identification, a hand scanner was used each time the rat was examined. This was necessary since the examiners will be masked as to treatment group. Treatment groups consisted of either NMDA only (control), O-1812 (0.1%) or O-2545 (0.1%), O-1812 (0.1%)+SR-141716 (2 mM), O-2545 (0.1%)+SR-141716 (2 mM), O-1812 (0.1%)+SR-144258 (2 mM) and O-2545 (0.1%)+SR-144258 (2 mM). All experiments were conducted in accordance with the policies of the Institutional Animal Care and Use Committee and the ARVO policy on use of animals in experiments. A minimum of two baseline ERG measurements was recorded 1 wk prior, 1 wk and 2 wk post injection. At the end of each experiment, rats were sacrificed and their eyes were preserved for histological assessment of effects on the retina and optic nerve.
Histology. For retinal flat mounts, retinas were dissected from formalin fixed whole eyes, mounted on superfrost glass slides, stained with hematoxylin and eosin and digitally photographed. For analysis, the retina was divided into four quadrants. A minimum of five 50 μm^2 sections per quadrant were used to count cell number. The cell sections were selected to be equidistant from the optic cup for all quadrants. For optic nerve experiments, the optic nerve was dissected at the margin of the optic disk and embedded in cryo media. Sections of 10 μm thickness were cut and mounted on superfrost glass slides and stained with hematoxylin and eosin. The slides were digitally photographed.

Rat NMDA Model = assay: Rat NMDA model: electroretinogram a-wave; type: in vivo; details: for Effect of CB1 antagonist SR-141716 on the action of the drug (ERG a-wave): drug 0.1% + SR-141716 2 mM
Protocol: as §1
Electroretinogram. In normal retina, full field electroretinography (ERG) stimulates both rods (a-waves) and cones (b-waves). A decrease in their amplitudes indicates retinal functional damage. Scotopic ERG changes were measured in rats that were dark-adapted for at least 4 hours. Eyes were then dilated with 1% atropine after which 0.5% proparacaine and methylcellulose gel (GPS 2.5%) was applied topically. Custom made AgCl electrodes were placed on the apex of the cornea. Stimuli consisted of 10-μsec flashes of unattenuated white light generated by a Ganzfeld bowl photo stimulator. Data from each eye were recorded separately with a driver amplifier and acquired digitally via DASYLab. The contralateral normal eye served as an age matched negative control, e.g. response in a normal, undamaged eye. Differences in amplitude of the a- and b-waves between the operated eye and the contralateral eye were calculated and analyzed by ANOVA and t-test.

optic nerve = assay: Rat NMDA model: optic nerve histology; type: in vivo
Protocol: as §1
Histology. For retinal flat mounts, retinas were dissected from formalin fixed whole eyes, mounted on superfrost glass slides, stained with hematoxylin and eosin and digitally photographed. […]

[3] = system: IOP in a rat glaucoma model; assay: Combination therapy: IOP in a rat glaucoma model; type: in vivo, Sprague Dawley rats; details: 1.0% topical alone, 120 min
From the text: (§2) Rat Glaucoma Model. Compared to acute studies, a chronic rat model of glaucoma was generated. The rats were made glaucomatous by ligating three vortex veins (Hosseini, A. et al. (2006) Chronic topical administration of WIN-55-212-2 maintinas a reduction in IOP in a rat glaucoma model without adverse effects. Exp. Eye Res. 82(5):753-9). More specifically, ocular hypertension was induced in Sprague-Dawley rats by ligating 3 of 4 episcleral veins of the right eye using 9.0 nylon sutures under anesthesia with 3 mg/Kg acepromazine and 20 mg/Kg ketamine. Within 6 wk, IOP increased by at least 5 mm Hg in the operated eye. This intervention produced at least a 30% increase in IOP in the operated eye and lasted for up to 60 weeks. During this time, a 30% loss of retinal function was documented by ERG. […] Thus, the model accurately mimics the progressive damage that occurs in patients with glaucoma.
(§3) Measurements of Intraocular Pressure. IOP elevation was measured under mild sedation using a calibrated Goldmann tonometer modified for rats. Three determinations were averaged for each eye. To account for diurnal variation, all IOP's were measured between 11 am and 1 pm during the daily trough period.
Combination Therapy. Since cannabinoids and timolol, which are both known to reduce IOP, have different mechanisms of action, there is potential for a synergistic effect. The combination of timolol and a synthetic cannabinoid (WIN55 212-2, O-1812, or O-2545) to reduce IOP in a chronic rat model of ocular hypertension was examined. Surgical ligation of three of the four episcleral veins in one eye of Sprague Dawley rats caused a long lasting (>44 week) increase in IOP. IOP was measured by Goldmann tonometry at baseline (−30), 0, 30, 60 and 120 min, as was heart rate and blood pressure. For combination therapy, after baseline IOP measurement, timolol 0.5% was applied topically followed 30 min later by WIN55 212-2 1.0%, O-1812 1.0%, or O-2545 1.0%. In another experiment, O-1812 1.0% and O-2545 1.0% were administered simultaneously. An analysis for ocular irritation was performed by slit lamp examination (SLE) at baseline and 150 min.

[4] = system: IOP in a rat glaucoma model; assay: IOP after topical application in chronic rat glaucoma model; type: in vivo, Sprague-Dawley rats; details: for Effect on IOP compared to baseline or vehicle: all concentrations tested
From the text: as §2, §3
Therapeutic Regimen. For IOP Measurements (Topical application) Baseline IOP, heart rate, blood pressure and normal ocular anatomy were documented prior to drug administration. The drugs WIN 55-212-2 (0.1%, 1.0%), O-1812 (0.01%, 0.1%, 1.0%), O-2545 (0.1%, 1.0%) were all dissolved in Tocrisolve™ (vehicle). IOP, heart rate, and blood pressure were measured prior to and after 30, 60 and 120 min after topical administration. Contralateral eyes served as vehicle treated controls.

[5] = Corneal thickness by in vivo confocal microscopy; set-up: species or system rats; details: 1.0% treated eye (OD) vs contralateral control (OS)
Protocol: Confocal Microscopy. Repeated noninvasive in vivo visualization of cornea and anterior segments for the presence, location and number of inflammatory cells, as well as fibrin, hyper-refractile bodies and changes in epithelial, stromal and endothelial cell morphology was performed by confocal microscopy. Prior to applanation, rats were sedated and 0.5% proparacaine was applied topically. Data was analyzed using the Metamorph imaging system (Universal Imaging, Downingtown, Pa.).

[6] = system: peripheral retinal ganglion cell; details: cited from earlier work

SMILES	Ocular toxicity / signs of ocular inflammation [1]	Preservation of the number of RGCs [2]	Effect of CB1 antagonist SR-141716 on the action of the drug (ERG a-wave) (Rat NMDA Model)	Protection of optic nerve against NMDA induced damage (optic nerve)	IOP at 120 min (% Baseline) [3] [% Baseline]	IOP after 60 min (% of Baseline) ([4]; 0.01% topical, 60 min)	IOP after 60 min (% of Baseline) ([4]; 0.10% topical, 60 min)	IOP after 60 min (% of Baseline) ([4]; 1.0% topical, 60 min)	Effect on IOP compared to baseline or vehicle ([4]; topical)	Time for which significant IOP reduction was maintained ([4]; 1.0% topical)	Effect on IOP at 30 min ([4]; 1.0% topical)	also measured
C[C@H](CO)NC(=O)CCC/C=C\C/C=C\C/C=C\C/C=C\C(C)(C)CCCCC#N [Compound O-1812]	non-toxic	preserved the number of RGCs	effectively blocked	prevented much of the NMDA induced damage	62.0 ± 0.5	81.9 ± 2.7 % of Baseline	78.3 ± 3.1 % of Baseline	61.9 ± 3.9 % of Baseline	effective; also recorded: significantly reduced IOP			RGCs preserved [2]: up to 83%; Retinal function, A-wave ERG (percentage of the contralateral normal eye) (Rat NMDA Model; NMDA intravitreal, drug 0.1%): more effectively preserved retinal function; Effect of CB2 antagonist SR-144258 on the action of the drug (ERG a-wave) (Rat NMDA Model; drug 0.1% + SR-144258 2 mM): no effect; Effect on IOP ([4]; 0.01% topical): significantly reduced IOP; Time for which the IOP decrease was maintained ([4]; 0.01% topical): ≤ 60 min; Relative efficacy in IOP reduction ([4]; 1.0% topical): most efficacious; Onset of IOP lowering action ([4]; topical): most rapid onset
CC1=CC[C@@H]2[C@@H](C1)c1c(O)cc(C(C)(C)CCCCn3ccnc3)cc1OC2(C)C [Compound O-2545]		preserved the number of RGCs	effectively blocked	prevented much of the NMDA induced damage	65.5 ± 0.8		77.8 ± 2.8 % of Baseline	76.4 ± 2.8 % of Baseline		up to 120 min	significantly reduced IOP	Time for which significant IOP reduction was maintained ([4]; 0.1% topical): up to 120 min; Effect on IOP at 30 min ([4]; 0.1% topical): significantly reduced IOP; Duration of IOP lowering action ([4]; topical): longest duration of action
Cc1c(C(=O)c2cccc3ccccc23)c2cccc3c2n1[C@H](CN1CCOCC1)CO3 [WIN 55-212-2, reference compound]	non-toxic				48.8 ± 2.8	83.1 ± 5.5 % of Baseline		58.3 ± 5.6 % of Baseline	effective	up to 120 min	significantly reduced IOP	Corneal thickness [5]: remained unchanged; Effect on IOP compared to vehicle or baseline ([4]; 0.1% topical): not significantly different from either vehicle or baseline; Effect on IOP at 60 min ([4]; 1.0% topical, 60 min): significantly reduced
N=C(N)NN [aminoguanidine]												Less peripheral retinal ganglion cell loss compared to untreated rats [6]: 26%
